Measurements taken from patent publication US20200267980A1, “Herbicidally Active Pyridyl-/Pyrimidyl-Pyrimidine Derivatives” (Syngenta Participations AG, priority 2017, published 2020).

How the values were obtained:
Format in all cases: in vivo
[1] = test system: Triticum aestivium (TRZAW); experiment: Pre-emergence herbicidal activity, glasshouse pot test; parameters: key: 5=total damage to plant; 0=no damage to plant; conditions: 1000 g/ha, pre-emergence spray, evaluated after 13 days, damage score 0-5
Procedure: (§1) Seeds of a variety of test species were sown in standard soil in pots: Triticum aestivium (TRZAW), Avena fatua (AVEFA), Alopecurus myosuroides (ALOMY), Echinochloa crus-galli (ECHCG), Lolium perenne (LOLPE), and Setaria faberi (SETFA). After cultivation for one day (pre-emergence) under controlled conditions in a glasshouse (at 24/16° C., day/night; 14 hours light; 65% humidity), the plants were sprayed with an aqueous spray solution derived from the formulation of the technical active ingredient in acetone/water (50:50) solution containing 0.5% Tween 20 (polyoxyethelyene sorbitan monolaurate, CAS RN 9005-64-5). The test plants were then grown in a glasshouse under controlled conditions (at 24/16° C., day/night; 14 hours light; 65% humidity) and watered twice daily. After 13 days, the test was evaluated (5=total damage to plant; 0=no damage to plant).

[2] = test system: Avena fatua (AVEFA); experiment: as above; parameters: key: 5=total damage to plant; 0=no damage to plant; conditions: 1000 g/ha, pre-emergence spray, evaluated after 13 days, damage score 0-5
Procedure: as §1

[3] = test system: Lolium perenne (LOLPE); experiment: as above; parameters: key: 5=total damage to plant; 0=no damage to plant; conditions: 1000 g/ha, pre-emergence spray, evaluated after 13 days, damage score 0-5
Procedure: as §1

[4] = test system: Alopecurus myosuroides (ALOMY); experiment: as above; parameters: key: 5=total damage to plant; 0=no damage to plant; conditions: 1000 g/ha, pre-emergence spray, evaluated after 13 days, damage score 0-5
Procedure: as §1

[5] = test system: Echinochloa crus-galli (ECHCG); experiment: as above; parameters: key: 5=total damage to plant; 0=no damage to plant; conditions: 1000 g/ha, pre-emergence spray, evaluated after 13 days, damage score 0-5
Procedure: as §1

[6] = test system: Setaria faberi (SETFA); experiment: as above; parameters: key: 5=total damage to plant; 0=no damage to plant; conditions: 1000 g/ha, pre-emergence spray, evaluated after 13 days, damage score 0-5
Procedure: as §1

[7] = test system: Avena fatua (AVEFA); experiment: Post-emergence herbicidal activity, glasshouse pot test; conditions: 1000 g/ha, post-emergence spray after 8 days cultivation, evaluated after 13 days, damage score 0-5
Procedure: (§2) Seeds of a variety of test species were sown in standard soil in pots: Triticum aestivium (TRZAW), Avena fatua (AVEFA), Alopecurus myosuroides (ALOMY), Echinochloa crus-galli (ECHCG), Lolium perenne (LOLPE), and Setaria faberi (SETFA). After 8 days cultivation (post-emergence) under controlled conditions in a glasshouse (at 24/16° C., day/night; 14 hours light; 65% humidity), the plants were sprayed with an aqueous spray solution derived from the formulation of the technical active ingredient in acetone/water (50:50) solution containing 0.5% Tween 20 (polyoxyethelyene sorbitan monolaurate, CAS RN 9005-64-5). The test plants were then grown in a glasshouse under controlled conditions (at 24/16° C., day/night; 14 hours light; 65% humidity) and watered twice daily. After 13 days, the test was evaluated (5=total damage to plant; 0=no damage to plant).

[8] = test system: Triticum aestivium (TRZAW); experiment: as above; parameters: key: 5=total damage to plant; 0=no damage to plant; conditions: 1000 g/ha, post-emergence spray after 8 days cultivation, evaluated after 13 days, damage score 0-5
Procedure: as §2

[9] = test system: Lolium perenne (LOLPE); experiment: as above; parameters: key: 5=total damage to plant; 0=no damage to plant; conditions: 1000 g/ha, post-emergence spray after 8 days cultivation, evaluated after 13 days, damage score 0-5
Procedure: as §2

[10] = test system: Alopecurus myosuroides (ALOMY); experiment: as above; parameters: key: 5=total damage to plant; 0=no damage to plant; conditions: 1000 g/ha, post-emergence spray after 8 days cultivation, evaluated after 13 days, damage score 0-5
Procedure: as §2

[11] = test system: Echinochloa crus-galli (ECHCG); experiment: as above; parameters: key: 5=total damage to plant; 0=no damage to plant; conditions: 1000 g/ha, post-emergence spray after 8 days cultivation, evaluated after 13 days, damage score 0-5
Procedure: as §2

[12] = test system: Setaria faberi (SETFA); experiment: as above; parameters: key: 5=total damage to plant; 0=no damage to plant; conditions: 1000 g/ha, post-emergence spray after 8 days cultivation, evaluated after 13 days, damage score 0-5
Procedure: as §2

| Structure (SMILES) | Control of weed species after pre-emergence application, TRAZW [1] | Control of weed species after pre-emergence application, AVEFA [2] | Control of weed species after pre-emergence application, LOLPE [3] | Control of weed species after pre-emergence application, ALOMY [4] | Control of weed species after pre-emergence application, ECHCG [5] | Control of weed species after pre-emergence application, SETFA [6] | Control of weed species after post-emergence application, AVEFA [7] | Control of weed species after post-emergence application, TRAZW [8] | Control of weed species after post-emergence application, LOLPE [9] | Control of weed species after post-emergence application, ALOMY [10] | Control of weed species after post-emergence application, ECHCG [11] | Control of weed species after post-emergence application, SETFA [12] |
| --- | --- | --- | --- | --- | --- | --- | --- | --- | --- | --- | --- | --- |
| O=C(CCC1CCCC1)Nc1cnc(-c2cncc(F)c2)nc1C(F)(F)F [Compound F19] | 1 | 1 | 1 | 0 | 4 | 4 | 2 | 0 | 1 | 0 | 4 | 4 |
| CC(C)C(=O)N(C)c1cnc(-c2cncc(F)c2)nc1C(F)(F)F [Compound F20, N-[2-(5-fluoro-3-pyridyl)-4-(trifluoromethyl)pyrimidin-5-yl]-N,2-dimethyl-propanamide] | 1 | 3 | 1 | 0 | 4 | 5 | 4 | 2 | 3 | 1 | 5 | 5 |
| O=C(C1CC1)N(C(=O)C1CC1)c1cnc(-c2cncc(F)c2)nc1C(F)(F)F [Compound F21] | 0 | 0 | 0 | 0 | 1 | 4 | 3 | 1 | 2 | 1 | 3 | 5 |
| O=C1CCCN1c1cnc(-c2cncc(F)c2)nc1C(F)(F)F [Compound F22] | 0 | 0 | 0 | 0 | 3 | 5 | 3 | 1 | 1 | 0 | 5 | 5 |
| O=C(CC(F)(F)F)Nc1cnc(-c2cncc(F)c2)nc1C(F)(F)F [Compound F23] | 0 | 0 | 0 | 0 | 3 | 5 | 3 | 0 | 2 | 0 | 5 | 5 |
| CC(C)=CC(=O)Nc1cnc(-c2cncc(F)c2)nc1C(F)(F)F [Compound F24] | 1 | 1 | 1 | 0 | 2 | 5 | 3 | 1 | 1 | 1 | 5 | 4 |
| Cc1ccc(C(=O)Nc2cnc(-c3cncc(F)c3)nc2C(F)(F)F)cc1 [Compound F25] | 0 | 0 | 0 | 0 | 3 | 4 | 2 | 0 | 1 | 0 | 5 | 4 |
| O=C(Nc1cnc(-c2cncc(F)c2)nc1C(F)(F)F)C1CCC1 [Compound F26] | 1 | 1 | 0 | 0 | 3 | 4 | 4 | 1 | 2 | 1 | 5 | 5 |
| O=C(Nc1cnc(-c2cncc(F)c2)nc1C(F)(F)F)C1CCCCC1 [Compound F27] | 0 | 0 | 0 | 0 | 0 | 0 | 1 | 0 | 0 | 0 | 3 | 2 |
